Bounds are passed on as bounds.

This assay concerns SKBr3 cell Hsp90. The experiment in a line: EC50 for Hsp90 binding in SKBr3 cell lysate. The settings on record: read-out: EC50, binding to SKBr3 cell Hsp90.
On to `CC(C)(C)CNCCn1c(Sc2cc3c(cc2-c2cccs2)OCO3)nc2c(N)ncnc21` [Compound 4D-3, 9-(2-(neopentylamino)ethyl)-8-(6-(thiophen-2-yl)benzo[d][1,3]dioxol-5-ylthio)-9H-purin-6-amine], for which the EC50 was found to be 18.5 nM.
For `CC(C)NCCCn1c(Sc2cc3c(cc2C2C=COC2)OCO3)nc2c(N)ncnc21` (stereo not shown) [Compound 4C-41, 8-(6-(2,3-dihydrofuran-3-yl)benzo[d][1,3]dioxol-5-ylthio)-9-(3-(isopropylamino)propyl)-9H-purin-6-amine], the EC50 was 2080 nM.
The same measure for `CC(C)(C)CNCCn1c(Sc2cc3c(cc2-c2ccoc2)OCO3)nc2c(N)ncnc21` [Compound 4C-14, 8-(6-(furan-3-yl)benzo[d][1,3]dioxol-5-ylthio)-9-(2-(neopentylamino)ethyl)-9H-purin-6-amine]: 10.1 nM; for `CC(C)NCCCn1c(Sc2cc3c(cc2-c2ccnn2C)OCO3)nc2c(N)ncnc21` [Compound 4G-4, 9-(3-(isopropylamino)propyl)-8-(6-(1-methyl-1H-pyrazol-5-yl)benzo[d][1,3]dioxol-5-ylthio)-9H-purin-6-amine]: over 300 nM.
On to `COc1ccc(-c2ccco2)c(Sc2nc3c(N)ncnc3n2CCNCC(C)(C)C)c1` [Compound 7C-13, 8-(2-(furan-2-yl)-5-methoxyphenylthio)-9-(2-(neopentylamino)ethyl)-9H-purin-6-amine], for which the EC50 came out at 84 nM.
The same measure for `NCCCCCCNCCCn1c(Sc2cc3c(cc2-c2cc(C(F)(F)F)cc(C(F)(F)F)c2)OCO3)nc2c(N)ncnc21` [Compound 4A-4, N1-(3-(6-amino-8-(6-(3,5-bis(trifluoromethyl)phenyl)benzo[d][1,3]dioxol-5-ylthio)-9H-purin-9-yl)propyl)hexane-1,6-diamine]: 15000 nM; for `CC(C)NCCCn1c(Sc2cc3c(cc2C2CC=CO2)OCO3)nc2c(N)ncnc21` (stereo not shown) [Compound 4C-40, 8-(6-(2,3-dihydrofuran-2-yl)benzo[d][1,3]dioxol-5-ylthio)-9-(3-(isopropylamino)propyl)-9H-purin-6-amine]: 509 nM; for `CC(C)(C)CNCCN1C(Sc2cc3c(cc2I)OCCO3)=NC2C(N)=NC=NC21` (stereo not shown) [Compound 5A-3, 8-(7-Iodo-2,3-dihydrobenzo[b][1,4]dioxin-6-ylthio)-9-(2-(neopentylamino)ethyl)-5,9-dihydro-4H-purin-6-amine]: 34.8 nM.
For the compound `CC(C)NCCCn1c(Sc2cc3c(cc2-c2cccs2)OCO3)nc2c(N)ncnc21` [Compound 4D-1, 9-(3-(isopropylamino)propyl)-8-(6-(thiophen-2-yl)benzo[d][1,3]dioxol-5-ylthio)-9H-purin-6-amine], the EC50 amounted to 80 nM.
`CC(C)NCCCn1c(Sc2cc3c(cc2-c2ccc(N(C)C)cc2)OCO3)nc2c(N)ncnc21` [Compound 4A-5, 8-(6-(4-(dimethylamino)phenyl)benzo[d][1,3]dioxol-5-ylthio)-9-(3-(isopropylamino)propyl)-9H-purin-6-amine]: the EC50 turned out to be 2520 nM.
Regarding `COc1ccc(-c2cc3c(cc2Sc2nc4c(N)ncnc4n2CCCNC(C)C)OCO3)cc1` [Compound 4A-6, 9-(3-(isopropylamino)propyl)-8-(6-(4-methoxyphenyl)benzo[d][1,3]dioxol-5-ylthio)-9H-purin-6-amine], the 50% effective concentration (EC50) turned out to be 1030 nM.
The same measure for `CC(C)NCCCn1c(Sc2cc3c(cc2-c2ccccc2)OCO3)nc2c(N)ncnc21` [Compound 4A-1, 9-(3-(isopropylamino)propyl)-8-(6-phenylbenzo[d][1,3]dioxol-5-ylthio)-9H-purin-6-amine]: 645 nM.
As for `CC(C)NCCCn1c(Sc2cc3c(cc2-c2cn[nH]c2)OCO3)nc2c(N)ncnc21` [Compound 4G-1, 8-(6-(1H-pyrazol-4-yl)benzo[d][1,3]dioxol-5-ylthio)-9-(3-(isopropylamino)propyl)-9H-purin-6-amine], the EC50 turned out to be 1020 nM.
Turning to `CC(C)(C)CNCCn1c(Sc2cc3c(cc2-c2cc[nH]c2)OCO3)nc2c(N)ncnc21` [Compound 4H-4, 8-(6-(1H-pyrrol-3-yl)benzo[d][1,3]dioxol-5-ylthio)-9-(2-(neopentylamino)ethyl)-9H-purin-6-amine], the EC50 was 24.6 nM.
Regarding `CC(C)NCCCn1c(Sc2cc3c(cc2-c2ccc(Br)cc2)OCO3)nc2c(N)ncnc21` [Compound 4A-7, 8-(6-(4-bromophenyl)benzo[d][1,3]dioxol-5-ylthio)-9-(3-(isopropylamino)propyl)-9H-purin-6-amine], the EC50 came out at 1380 nM.
In the case of `CC(C)NCCCn1c(Sc2cc3c(cc2-c2nccs2)OCO3)nc2c(N)ncnc21` [Compound 4D-16, 9-(3-(isopropylamino)propyl)-8-(6-(thiazol-2-yl)benzo[d][1,3]dioxol-5-ylthio)-9H-purin-6-amine], the EC50 amounted to 47 nM.
Consider `CC(C)NCCCn1c(Sc2cc3c(cc2-c2ccco2)OCCO3)nc2c(N)ncnc21` [Compound 5B-1, 8-((7-(furan-2-yl)-2,3-dihydrobenzo[b][1,4]dioxin-6-yl)thio)-9-(3-(isopropylamino)propyl)-9H-purin-6-amine], for which the EC50 turned out to be 6.9 nM.
As to `CC(C)NCCCn1c(Sc2cc3c(cc2-c2ccc(C=O)cc2)OCO3)nc2c(N)ncnc21` [Compound 4A-8, 4-(6-(6-amino-9-(3-(isopropylamino)propyl)-9H-purin-8-ylthio)benzo[d][1,3]dioxol-5-yl)benzaldehyde], the EC50 is over 3000 nM.
In the case of `CC(C)NCCCn1c(Sc2cc3c(cc2-c2ncco2)OCO3)nc2c(N)ncnc21` [Compound 4C-38, 9-(3-(isopropylamino)propyl)-8-(6-(oxazol-2-yl)benzo[d][1,3]dioxol-5-ylthio)-9H-purin-6-amine], the EC50 came out at 7.9 nM.
Consider `CC(C)NCCCn1c(Sc2cc3c(cc2I)OCCO3)nc2c(N)ncnc21` [Compound 5A-1, 8-(7-Iodo-2,3-dihydrobenzo[b][1,4]dioxin-6-ylthio)-9-(3-(isopropylamino)propyl)-9H-purin-6-amine], for which the EC50 was found to be 34.5 nM.
As to `CC(C)NCCCn1c(Sc2cc3c(cc2-c2ccco2)OCO3)nc2c(N)ncnc21` [Compound 4C-1, 8-(6-(furan-2-yl)benzo[d][1,3]dioxol-5-ylthio)-9-(3-(isopropylamino)propyl)-9H-purin-6-amine], the EC50 amounted to 22 nM.
Regarding `CC(C)NCCCn1c(Sc2cc3c(cc2-c2ccc(C(C)(C)C)cc2)OCO3)nc2c(N)ncnc21` [Compound 4A-2, 8-(6-(4-tert-butylphenyl)benzo[d][1,3]dioxol-5-ylthio)-9-(3-(isopropylamino)propyl)-9H-purin-6-amine], the EC50 was found to be 6240 nM.
On to `CC(C)NCCCn1c(Sc2cc3c(cc2-c2ccc[nH]2)OCO3)nc2c(N)ncnc21` [Compound 4H-1, 8-(6-(1H-pyrrol-2-yl)benzo[d][1,3]dioxol-5-ylthio)-9-(3-(isopropylamino)propyl)-9H-purin-6-amine], for which the EC50 came to 740 nM.
Consider `CC(C)NCCCn1c(Sc2cc3c(cc2-c2ccc(C=O)o2)OCO3)nc2c(N)ncnc21` [Compound 4C-6, 5-(6-(6-amino-9-(3-(isopropylamino)propyl)-9H-purin-8-ylthio)benzo[d][1,3]dioxol-5-yl)furan-2-carbaldehyde], for which the EC50 amounted to 141 nM.
On to `CC(C)NCCCn1c(Sc2cc3c(cc2-c2ccncc2)OCO3)nc2c(N)ncnc21` [Compound 4F-1, 9-(3-(isopropylamino)propyl)-8-(6-(pyridin-4-yl)benzo[d][1,3]dioxol-5-ylthio)-9H-purin-6-amine], for which the EC50 was found to be 9620 nM.

Source of the values: patent US10172863B2, “Purine derivatives useful as HSP90 inhibitors” (Sloan-Kettering Institute for Cancer Research, priority 2009, dated 2019).
